# Patent US8748395B2, “Cell-permeable peptide inhibitors of the JNK signal transduction pathway” (Xigen Inflammation Ltd., priority 2006, dated 2014)
# Entries after “also recorded” stand apart in the source; their conditions may differ. Square brackets hold non-standard residues; d marks the D form. Peptide text beside a SMILES is read from it.
# Legend:
# [1] = test system: guinea pigs; assay: Treatment of noise trauma, hearing threshold shifts by auditory brainstem response; type: in vivo
# Description: Changes of the hearing threshold level (dB sound pressure level) in guinea pigs following noise trauma (120 dB at 6 kHz during 30 minutes) at 8 kHz, the maximally impacted frequency, measured 20 minutes (temporary threshold shift, TTS, grey) and 15 days post noise exposure (permanent threshold shift). Guinea pigs received D-TAT-IB1(s) in a hyaluronic acid gel deposited onto the cochlear round window membrane either 30 minutes before, 30 minutes after or 4 hours after noise trauma; untreated ears served as control. TTS was measured 20 minutes post noise trauma, while PTS (black), which corresponds to permanent hearing loss, was determined after 15 days.
# D-TAT-IB1(s) was applied onto the round window membrane of the cochlea of 3 groups of guinea pigs (each group with 6 animals) in 2 microliters of a gel formulation of 2.6% buffered hyaluronic acid (Hylumed, Genzyme Corp.) at a concentration of 100 μM either 30 minutes before noise trauma (120 dB at 6 kHz during 30 minutes) or 30 minutes or 4 hours thereafter. Untreated ears served as control. Hearing threshold shifts were evaluated by auditory brainstem response measurements 20 minutes after noise trauma (temporary threshold shift, TTS) and 15 days following the trauma (permanent threshold shift, PTS). […] Thus, D-TAT-IB1(s) is a very effective otoprotective compound in case of noise trauma.
# [2] = test system: recombinant JNK1, JNK2 and JNK3; assay: Solid phase kinase assay: JNK-mediated phosphorylation of c-Jun, ATF2 and Elk1; type: biochemical; conditions: GST-Jun (aa 1-73), 0-250 μM dosage study; fold less efficient
# Description: The effects of the peptides on JNKs-mediated phosphorylation of their target transcription factors were investigated in vitro. Recombinant and non activated JNK1, JNK2 and JNK3 were produced using a TRANSCRIPTION AND TRANSLATION rabbit reticulocyte lysate kit (PROMEGA®) and used in solid phase kinase assays with c-jun, ATF2 and Elk1, either alone or fused to glutathione-S-transferase (GST), as substrates. Dose response studies were performed wherein inventive L-TAT or L-TAT-IB1(s) peptides (0-25 μM) were mixed with the recombinant JNK1, JNK2, or JNK3 kinases in reaction buffer (20 mM Tris-acetate, 1 mM EGTA, 10 mM p-nitrophenyl-phosphate (pNPP), 5 mM sodium pyrophosphate, 10 mM p-glycerophosphate, 1 mM dithiothreitol) for 20 minutes. The kinase reactions were then initiated by the addition of 10 mM MgCl2 and 5 pCi^33P-γ-dATP and 1 μg of either GST-Jun (aa 1-89), GST-AFT2 (aa 1-96) or GST-ELK1 (aa 307-428). GST-fusion proteins were purchased from Stratagene (La Jolla, Calif.).
# Ten μL of glutathione-agarose beads were also added to the mixture. Reaction products were then separated by SDS-PAGE on a denaturing 10% polyacrylamide gel. Gels were dried and subsequently exposed to X-ray films (Kodak).
# The ability of D-TAT, inventive D-TAT-IB1(s) and inventive L-TAT-IB1 (s) peptides (0-250 μM dosage study) to inhibit GST-Jun (aa 1-73) phosphorylation by recombinant JNK1, JNK2, and JNK3 by were analyzed as described above. Overall, D-TAT-IB1(s) peptide decreased JNK-mediated phosphorylation of c-Jun, but at levels approximately 10-20 fold less efficiently than L-TAT-IB1(s).
# [3] = test system: male ICR-CD1 mice; assay: Neuroprotection after iv administration against focal cerebral ischaemia, transient MCAO model; type: in vivo
# Description: Transient ischemia in adult mice. Using male ICR-CD1 mice (6 weeks old; 18-37 g; Harlan), we provoked ischemia by introducing a filament from the common carotid artery into the internal carotid and advancing it into the arterial circle, thereby occluding the middle cerebral artery. We measured regional cerebral blood flow by laser Doppler flowmetry, with a probe fixed on the skull throughout the ischemia until 10 min after reperfusion. Rectal temperature was measured and maintained at 37° C. The mice were killed 48 h after reperfusion. Serial cryostat sections 20 μm thick were traced using a computer-microscope system equipped with the Neurolucida program (MicroBrightField) and the volumes of the ischemic area and of the whole brain were calculated (blinded) with the Neuroexplorer program. XG-102 0.3=0.3 mg/kg, XG-102 1=1 mg/kg, XG-102 5=5 mg/kg
# The infarct volume sizes (mm^3) after bolus iv administration of placebo and XG-102 0.3, […] 6 hours after reperfusion (30 minutes clamp) in an adult mice model were as follows.
# [4] = test system: 12-days-old rats; assay: Neuroprotection against focal cerebral ischemia, permanent MCAO model; type: in vivo
# Description: Focal cerebral ischemia was induced in 12-days-old rats. Pups were anesthetized in an induction chamber with 2% isoflurane and during the operation anaesthesia was maintained using a mask under 2% isoflurane. MCAO was induced by electrocoagulating a main branch of the middle cerebral artery (MCA). Rats were placed on the right side, and an oblique dermal incision was made between the ear and eye. After excision of the temporal muscle, the cranial bone was removed from the frontal suture to a level below the zygomatic arch. […] The cranial skin incision was then closed. Rat pups were then placed in an incubator maintained at 37° C. until they awoke, and were then transferred to their mother.
# 6 hours later an inventive chimeric D-TAT-IB1(s) peptide according to SEQ ID NO: 11 was injected intraperitoneally. 24 hours after the coagulation, the rats were anesthetized with chloral hydrate and perfused through the ascending aorta with 4% paraformaldehyde in PBS. Brains were then removed and kept for 2 hours in the same fixative solution, and placed in a gradient of 30% sucrose in PBS for about 15 hours at 4° C. Brains were frozen in isopentane (−40° C.) and stored at −20° C. Coronal cryostat sections of 50 μm were collected on glass slides. The sections were stained with cresyl violet. Each tenth section was analyzed and the total volume of the lesion was calculated using the Neuroleucida programme. In the control group A, the mean lesion volume was 21.47 mm^3. […] A significant statistic difference is observed between group A and groups C, E and F (one-tailed t-test, p=0.030, p=0.002, p=0.001 respectively).
smiles,measurement,setting,value
CC(C)C[C@@H](NC(=O)[C@@H](Cc1ccccc1)NC(=O)[C@H]1CCCN1C(=O)[C@@H](CCC(N)=O)NC(=O)[C@H](NC(=O)[C@H]1CCCN1C(=O)[C@@H](CCCNC(=N)N)NC(=O)[C@@H](CO)NC(=O)[C@@H](CCC(N)=O)NC(=O)[C@H](N)CC(=O)O)C(C)C)C(=O)N[C@H](CC(N)=O)C(=O)N[C@H](CC(C)C)C(=O)N[C@@H](C(=O)N[C@@H](C(=O)N1CCC[C@@H]1C(=O)N[C@H](CCCNC(=N)N)C(=O)N[C@H](CCCCN)C(=O)N1CCC[C@@H]1C(=O)N[C@H](CCCNC(=N)N)C(=O)N1CCC[C@@H]1C(=O)N1CCC[C@@H]1C(=O)N[C@H](CCCNC(=N)N)C(=O)N[C@H](CCCNC(=N)N)C(=O)N[C@H](CCCNC(=N)N)C(=O)N[C@H](CCC(N)=O)C(=O)N[C@H](CCCNC(=N)N)C(=O)N[C@H](CCCNC(=N)N)C(=O)N[C@H](CCCCN)C(=O)N[C@H](CCCCN)C(=O)N[C@H](CCCNC(=N)N)C(=O)NCC(=O)O)[C@H](C)O)[C@H](C)O [D-TAT-IB1(s)] (H-[dD][dQ][dS][dR][dP][dV][dQ][dP][dF][dL][dN][dL][dT][dT][dP][dR][dK][dP][dR][dP][dP][dR][dR][dR][dQ][dR][dR][dK][dK][dR]G-OH),"protection against permanent hearing loss (PTS, 15 days)","[1]; 100 μM in hyaluronic acid gel on round window membrane, 30 minutes before, 30 minutes or 4 hours after noise trauma",protects substantially against permanent hearing loss; also recorded: protected against permanent hearing loss even if applied after exposure to excessive noise
same,PTS in treated ears versus untreated control ears,"[1]; administration 30 minutes and 4 hours post trauma, 8 kHz",significantly lower
same,"decrease of JNK-mediated phosphorylation of c-Jun, efficiency relative to L-TAT-IB1(s)",[2],10-20 fold
same,"infarct volume sizes, moyenne","[3]; 0.3 mg/kg bolus iv 6 hours after reperfusion (30 minutes clamp), n = 5",16 mm^3
same,"infarct volume sizes, moyenne","[3]; 1 mg/kg bolus iv 6 hours after reperfusion (30 minutes clamp), n = 1",16 mm^3
same,"infarct volume sizes, moyenne","[3]; XG102 3, bolus iv 6 hours after reperfusion (30 minutes clamp), n = 5",15 mm^3
same,neuroprotection,"[3]; i.v. administration, mice killed 48 h after reperfusion",provides efficient neuroprotection
same,cerebral protection compared to saline group,"[4]; dose of 1 mg/kg, 0.003 mg/kg and 0.0003",total sample was not large enough to reach a significant difference
same,cerebral protection,"[4]; dose of 11 mg/kg, 3 mg/kg, 0.3 mg/kg and 0.03 mg/kg i.p.",contributes to a cerebral protection
same,dose at which the best protection is observed,[4]; i.p. 6 hours after MCAO,0.03 mg/kg
same,mean lesion volume versus control group,"[4]; i.p. 6 hours after MCAO, analysis at 24 hours, all treated groups",lower mean than the control group
